From US20070243221A1, “ANTI-WRINKLE COMPOSITION” (L'OREAL, priority 2006, published 2007)

System: normal human fibroblasts
Experiment: Dermo-decontracting effect: spontaneous contraction of equivalent dermis (collagen matrix seeded with normal human fibroblasts)
Format: cell-based
Settings: on average over the duration of the experiment (0, 4, 8 and 24 hours), equivalent dermis surface area
From the text: The principle of this test consists in studying the effect of the test product on a model of equivalent dermis consisting of a collagen matrix seeded with normal human fibroblasts.
These conditions are intended to mimic in vitro the dermal contractile phenomena that take place during facial movements. The reason for this is that, under these conditions, the cells spontaneously exert tensile forces that induce a shrinkage of the collagen gel. […] Measurement of this area makes it possible to evaluate the relaxation effects of the substances placed in contact beforehand with the equivalent dermis.
Two series of attached equivalent dermides containing normal human fibroblasts are prepared: a control series without any treatment, and a series treated with the test compound (1 μM). The experiment is repeated three times.
The dermal equivalents are prepared as described in Asselineau et al., Exp. Cell. Res., 1985, 159, 536-539; Models in dermatology, 1987, vol. 3, pp. 1-7, in the following proportions:
The treated equivalent dermis differs from the control equivalent dermis in that 1 μM of the test compound has been added thereto. […]
To do this, a digital image is acquired for each treated or untreated equivalent dermis using a camera (CCD camera—Iris Sony DXC-107P) and the surface area is then calculated on each image by means of an image analysis system (Zeiss Axiovision 3.0). […]

SMILES	reduces the contraction of fibroblasts, compared with the control (tested at 10 μM) [%]	reduces the contraction of fibroblasts, compared with the control (tested at 1 μM) [%]
CC(NC1CCN(CCc2ccccc2)CC1)c1ccccc1 (centres unmarked) [compound 5, 1-(2-phenylethyl)-4-[N-(1-phenylethyl)]aminopiperidine]	40	
c1ccc(CCCNC2CCN(CCc3ccccc3)CC2)cc1 [compound 1, 1-(2-phenylethyl)-4-[N-(3-phenylpropyl)]aminopiperidine]		21
